Laboratory results published in patent EP0240392A1, “Compounds of the cyclophosphazene type, process for their preparation and pharmaceutical preparation containing them” (CENTRE NATIONAL DE LA RECHERCHE SCIENTIFIQUE (CNRS), priority 1986, dated 1987).
Read-outs that look alike come from different tables or passages of the source. Marks after values point to notes of the source that are not given here.

Columns and labels:
LEUCEMIE P388 = experiment: Antitumour activity on P388 leukemia implanted i.p. in mice; type: in vivo, souris CD2F1
From the text: (§1) Les tests d'activité antitumorale ont été conduits au sein du Screening and Pharmacology Group de l'E.O.R.T.C., implanté à l'Institut Mario Negri de Milan.
(§2) Ces essais ont été conduits soit en mono-injection à différentes doses au jour J+1 suivant la greffe de la tumeur, soit en poly-injections chroniques Q1D, soit en protocoles Q4D.
(§3) L'activité antitumorale est mesurée par le rapport T/C %, T (en jours) étant le durée moyenne de vie des souris traitées, C (en jours) étant la durée moyenne de vie des souris témoins.
(§4) L'effet thérapeutique est considéré comme significatif quant T/C % est supérieur ou égal à 125.

[1] = tested on: LEUCEMIE P388 INTRACEREBRALE; experiment: Antitumour activity on intracerebral P388 leukemia in mice; type: in vivo, souris CD2F1; conditions: Tableau 2, inoculation i.c.
From the text: as §1, §2, §3, §4

[2] = Solubility in water and physiological serum; type: physicochemical
From the text: La solubilité dans l'eau et dans le sérum physiologique est supérieure à 20 g/l ce qui est donc largement suffisant pour la réalisation de formes injectables.

ERYTH[…] K562 = experiment: Growth of human erythroleukemia K562 in vitro; type: cell-based, humaine
MELANOME B16 = experiment: Antitumour activity on B16 melanoma implanted i.m. in mice; type: in vivo, souris C57B1/6
From the text: as §1, §2, §3, §4

[3] = 200 mg/kg i.p. j 1,5,9, jour 27

C(CCN1CCCNP12=NP(N1CC1)(N1CC1)=NP(N1CC1)(N1CC1)=N2)CN1CCCNP12=NP(N1CC1)(N1CC1)=NP(N1CC1)(N1CC1)=N2 (centres unmarked) [SPM]
T/C (%) (LEUCEMIE P388; Tableau 2, inoculation i.p., 100 mg/kg i.p. x 9 (j 1 à 9)): 245%
T/C (%) (LEUCEMIE P388; Tableau 2, inoculation i.p., 150 mg/kg i.p. x 9 (j 1 à 9)): 135%
T/C (%) (LEUCEMIE P388; Tableau 2, inoculation i.p., 200 mg/kg i.p. x 9 (j 1 à 9)): 110%
T/C (%) (LEUCEMIE P388; Tableau 9, 25 mg/kg i.p. x j 1-9): 166%
T/C (%) (LEUCEMIE P388; Tableau 9, 50 mg/kg i.p. x j 1,5,9): 161%
T/C (%) (LEUCEMIE P388; Tableau 9, 50 mg/kg i.p. x j 1-9): 176%
T/C (%) (LEUCEMIE P388; Tableau 9, 100 mg/kg i.p. x j 1): 152%
T/C (%) (LEUCEMIE P388; Tableau 9, 100 mg/kg i.p. x j 1,5,9): 190%
T/C (%) (LEUCEMIE P388; Tableau 9, 100 mg/kg i.p. x j 1-9 (9Q1D)): 260%
T/C (%) (LEUCEMIE P388; Tableau 9, 150 mg/kg i.p. x j 1,5,9): 219%
T/C (%) (LEUCEMIE P388; Tableau 9, 150 mg/kg i.p. x j 1-9): 195%
T/C (%) (LEUCEMIE P388; Tableau 9, 200 mg/kg i.p. x j 1): 166%
T/C (%) (LEUCEMIE P388; Tableau 9, 250 mg/kg i.p. x j 1,5,9 (Q4D)): 285%
T/C (%) (LEUCEMIE P388; Tableau 9, 300 mg/kg i.p. x j 1): 166%
T/C (%) (LEUCEMIE P388; Tableau 9, 400 mg/kg i.p. x j 1): 200%
T/C (%) ([1]; 100 mg/kg i.p. x 9 (j 1 à 9)): 141%
T/C (%) ([1]; 150 mg/kg i.p. x 9 (j 1 à 9)): 123%
T/C (%) ([1]; 200 mg/kg i.p. x 9 (j 1 à 9)): 129%
solubility ([2]; serum, sérum physiologique, read-out: solubilité dans le sérum physiologique): > 20 mg/mL
solubility ([2]; water, eau, read-out: solubilité dans l'eau): > 20 mg/mL
Nombre de cellules x 10^4 (ERYTH[…] K562; 0,01 µg/ml, 24 heures): 20,7 ± 1,7 x 10^4
Nombre de cellules x 10^4 (ERYTH[…] K562; 0,1 µg/ml, 24 heures): 17,8 ± 1,7 x 10^4
Nombre de cellules x 10^4 (ERYTH[…] K562; 0,01 µg/ml, 48 heures): 41,5 ± 1,6 x 10^4
Nombre de cellules x 10^4 (ERYTH[…] K562; 0,1 µg/ml, 48 heures): 37,2 ± 4,5 x 10^4
Nombre de cellules x 10^4 (ERYTH[…] K562; 0,01 µg/ml, 72 heures): 60,7 ± 5,8 x 10^4
Nombre de cellules x 10^4 (ERYTH[…] K562; 0,1 µg/ml, 72 heures): 60,6 ± 5,4 x 10^4
Nombre de cellules x 10^4 (ERYTH[…] K562; 1 µg/ml, 24 heures): 17,8 ± 3,3 x 10^4
Nombre de cellules x 10^4 (ERYTH[…] K562; 1 µg/ml, 48 heures): 36,4 ± 1,8 x 10^4
Nombre de cellules x 10^4 (ERYTH[…] K562; 1 µg/ml, 72 heures): 50,9 ± 4,3 x 10^4
Nombre de cellules x 10^4 (ERYTH[…] K562; 5 µg/ml, 24 heures): 17,3 ± 1,4 x 10^4
Nombre de cellules x 10^4 (ERYTH[…] K562; 5 µg/ml, 48 heures): 20,9 ± 2,1 x 10^4
Nombre de cellules x 10^4 (ERYTH[…] K562; 5 µg/ml, 72 heures): 35,5 ± 2,0 x 10^4
Nombre de cellules x 10^4 (ERYTH[…] K562; 10 µg/ml, 24 heures): 17,4 ± 0,9 x 10^4
Nombre de cellules x 10^4 (ERYTH[…] K562; 10 µg/ml, 48 heures): 21,1 ± 0,2 x 10^4
Nombre de cellules x 10^4 (ERYTH[…] K562; 10 µg/ml, 72 heures): 26,9 ± 2,3 x 10^4
Nombre de cellules x 10^4 (ERYTH[…] K562; 50 µg/ml, 24 heures): 13,2 ± 1,7 x 10^4
Nombre de cellules x 10^4 (ERYTH[…] K562; 50 µg/ml, 48 heures): 15,0 ± 1,5 x 10^4
Nombre de cellules x 10^4 (ERYTH[…] K562; 50 µg/ml, 72 heures): 17,4 ± 1,3 x 10^4
Nombre de cellules x 10^4 (ERYTH[…] K562; 100 µg/ml, 24 heures): 11,6 ± 0,4 x 10^4
Nombre de cellules x 10^4 (ERYTH[…] K562; 100 µg/ml, 48 heures): 14,7 ± 0,1 x 10^4
Nombre de cellules x 10^4 (ERYTH[…] K562; 100 µg/ml, 72 heures): 15,0 ± 0,8 x 10^4
effet sur la croissance in vitro de l'érythroleucémie humaine K562 (result in words) (ERYTH[…] K562; in vitro, MYCLAz: même à dose toxique): inhibe d'une manière très remarquable la croissance in vitro
amplitude de la plage de doses à effet significatif (ERYTH[…] K562; ratio of highest to lowest significant dose): ≥ 10 000
T/C (%) (MELANOME B16; 100 mg/kg i.p. j 1-9): 103%
Volume moyen de la tumeur (cm^3 ± S.E.) (MELANOME B16; 100 mg/kg i.p. j 1-9, jour 17): 1,01±0,15 cm^3
Volume moyen de la tumeur (cm^3 ± S.E.) (MELANOME B16; 100 mg/kg i.p. j 1-9, jour 20): 1,71±0,13* cm^3
Volume moyen de la tumeur (cm^3 ± S.E.) (MELANOME B16; 100 mg/kg i.p. j 1-9, jour 24): 3,39±0,34* cm^3
Volume moyen de la tumeur (cm^3 ± S.E.) (MELANOME B16; 100 mg/kg i.p. j 1-9, jour 27): 3,75±0,29 cm^3
nombre de souris vivantes/total (MELANOME B16; 100 mg/kg i.p. j 1-9, jour 27): 9/10
T/C (%) (MELANOME B16; 200 mg/kg i.p. j 1,5,9): 120%
Volume moyen de la tumeur (cm^3 ± S.E.) (MELANOME B16; 200 mg/kg i.p. j 1,5,9, jour 13): 0,52±0,08* cm^3
Volume moyen de la tumeur (cm^3 ± S.E.) (MELANOME B16; 200 mg/kg i.p. j 1,5,9, jour 17): 1,17±0,14* cm^3
Volume moyen de la tumeur (cm^3 ± S.E.) (MELANOME B16; 200 mg/kg i.p. j 1,5,9, jour 20): 1,66±0,15* cm^3
Volume moyen de la tumeur (cm^3 ± S.E.) (MELANOME B16; 200 mg/kg i.p. j 1,5,9, jour 24): 3,72±0,29* cm^3
Volume moyen de la tumeur (cm^3 ± S.E.) (MELANOME B16; [3]): 4,98±0,56 cm^3
nombre de souris vivantes/total (MELANOME B16; [3]): 8/10
